Experimental data: patent publication US7250413B2, “C-25 carbamate rifamycin derivatives with activity against drug-resistant microbes” (Cumbre Pharmaceuticals Inc., priority 2004, dated 2007)
In brackets after ≈: the same amount, converted by molar mass.

What was measured:
Experiment in all cases: MIC, microbroth dilution
Format in all cases: cell-based
[1] = tested on: Mycobacterium smegmatis ATCC700084; details: Mycolicibacterium smegmatis, ATCC700084; rifS; Middlebrook Broth plus ADC Enrichment, 37° C.; read-out: MIC
Protocol: (§1) Representative compounds were assayed for antimicrobial activity as follows: Minimum Inhibitory Concentrations (“MICs”) were determined by the microbroth dilution method as per NCCLS guidelines (National Committee for Clinical Laboratory Standards, 2000), except that all growth incubations were conducted at 37° C. Bacterial cultures were tested in the following bacteriological media: S. aureus, S. epidermidis, and E. coli in Cation-Adjusted Mueller-Hinton Broth, S. pneumoniae in THY Broth supplemented with 1 mg/mL catalase under 5% CO2 atmosphere, S. pyogenes in THY Broth, E. faecalis in BHI Broth, H. influenzae in BHI Broth supplemented with 0.75 μL of 1 mg/mL NAD and 150 μL of 1 mg/ml hematin per 5 mL, and M smegmatis in Middlebrook Broth plus ADC Enrichment.

[2] = tested on: Staphylococcus aureus ATCC29213; details: rifS, Cation-Adjusted Mueller-Hinton Broth, 37° C., read-out: MIC
Protocol: as §1

[3] = tested on: Enterococcus faecalis ATCC29212; details: rifS, BHI Broth, 37° C., read-out: MIC
Protocol: as §1

Row | MIC [1] [µg/mL] | MIC [2] [µg/mL] | MIC [3] [µg/mL] | SMILES
1 | 0.063 to 31 | 0.002 to 1.95 (≈ 0.00163 to 1.59 µM) | 0.25 to 62 (≈ 0.204 to 50.7 µM) | COc1c(N2CCC(NC3CCN(C(=O)O[C@H]4[C@H](C)[C@H](O)[C@H](C)[C@@H](O)[C@@H](C)/C=C/C=C(/C)C(=O)NC5=C(N6CCOCC6)C(=O)c6c(c(O)c(C)c7c6C(=O)[C@@](C)(O/C=C/[C@H](OC)[C@H]4C)O7)C5=O)CC3)CC2)c(F)cc2c(=O)c(C(=O)O)cn(C3CC3)c12 [Example 58]
2 | 0.063 to 31 | 0.002 to 1.95 (≈ 0.00209 to 2.04 µM) | 0.25 to 62 (≈ 0.262 to 64.9 µM) | CO[C@H]1/C=C/O[C@@]2(C)Oc3c(C)c(O)c4c(c3C2=O)C(=O)C(N2CCOCC2)=C(NC(=O)/C(C)=C\C=C\[C@H](C)[C@H](O)[C@@H](C)[C@@H](O)[C@@H](C)[C@H](OC(=O)NC2CCN(Cc3ccccc3)CC2)[C@@H]1C)C4=O [Example 33, 25-O-Desacetyl-(carbonyl-1-benzyl-piperidin-4-ylamine) 3-morpholino rifamycin S]
3 | 0.063 to 31 | 0.002 to 1.95 (≈ 0.00244 to 2.38 µM) | 0.25 to 62 (≈ 0.305 to 75.6 µM) | C#CCNC(=O)O[C@H]1[C@H](C)[C@H](O)[C@H](C)[C@@H](O)[C@@H](C)/C=C/C=C(/C)C(=O)NC2=C(N3CCOCC3)C(=O)c3c(c(O)c(C)c4c3C(=O)[C@@](C)(O/C=C/[C@H](OC)[C@H]1C)O4)C2=O [Example 43, 25-O-Desacetyl-(carbonyl-prop-2-ynylamino) 3-morpholino rifamycin S]
4 | 0.063 to 31 | 0.002 to 1.95 (≈ 0.00219 to 2.13 µM) | 0.25 to 62 (≈ 0.274 to 67.8 µM) | CO[C@H]1/C=C/O[C@@]2(C)Oc3c(C)c(O)c4c(c3C2=O)C(=O)C(N2CCOCC2)=C(NC(=O)/C(C)=C\C=C\[C@H](C)[C@H](O)[C@@H](C)[C@@H](O)[C@@H](C)[C@H](OC(=O)NCCCCc2ccccc2)[C@@H]1C)C4=O [Example 34, 25-O-Desacetyl-(carbonyl-4-phenyl-butylamine) 3-morpholino rifamycin S]
5 | 0.063 to 31 | 0.002 to 1.95 (≈ 0.00175 to 1.7 µM) | 0.25 to 62 (≈ 0.218 to 54.1 µM) | CO[C@H]1/C=C/O[C@@]2(C)Oc3c(C)c(O)c4c(c3/C2=N/O)C(=O)C(N2CCOCC2)=C(NC(=O)/C(C)=C\C=C\[C@H](C)[C@H](O)[C@@H](C)[C@@H](O)[C@@H](C)[C@H](OC(=O)NC2CCN(c3c(F)cc5c(=O)c(C(=O)O)cn(C6CC6)c5c3Cl)C2)[C@@H]1C)C4=O (stereo partly drawn) [Example 68]
6 | 0.063 to 31 | 0.002 to 1.95 (≈ 0.00242 to 2.36 µM) | 0.25 to 62 (≈ 0.303 to 75.1 µM) | CO[C@H]1/C=C/O[C@@]2(C)Oc3c(C)c(O)c4c(c3C2=O)C(=O)C(N2CCOCC2)=C(NC(=O)/C(C)=C\C=C\[C@H](C)[C@H](O)[C@@H](C)[C@@H](O)[C@@H](C)[C@H](OC(=O)NCCO)[C@@H]1C)C4=O [Example 20, 25-O-Desacetyl-(1-carbonyl-2-aminoethanol) 3-morpholino rifamycin S]
7 | 0.063 to 31 | 0.002 to 1.95 (≈ 0.00211 to 2.06 µM) | 0.25 to 62 (≈ 0.264 to 65.5 µM) | CO[C@H]1/C=C/O[C@@]2(C)Oc3c(C)c(O)c4c(c3C2=O)C(=O)C(N2CCOCC2)=C(NC(=O)/C(C)=C\C=C\[C@H](C)[C@H](O)[C@@H](C)[C@@H](O)[C@@H](C)[C@H](OC(=O)NCC#Cc2cnc3ccccc3c2)[C@@H]1C)C4=O [Example 45, 25-O-Desacetyl-(carbonyl-3-quinolin-3-yl-prop-2-ynylamine) 3-morpholino rifamycin S]
8 | 0.063 to 31 | 0.002 to 1.95 (≈ 0.00165 to 1.61 µM) | 0.25 to 62 (≈ 0.207 to 51.3 µM) | COc1c(N2CCC(NC3CCN(C(=O)O[C@H]4[C@H](C)[C@H](O)[C@H](C)[C@@H](O)[C@@H](C)/C=C/C=C(/C)C(=O)NC5=C(N6CCOCC6)C(=O)c6c(c(O)c(C)c7c6C(=O)[C@@](C)(O/C=C/[C@H](OC)[C@H]4C)O7)C5=O)CC3)C2)c(F)cc2c(=O)c(C(=O)O)cn(C3CC3)c12 (stereo partly drawn) [Example 56]
9 | 0.063 to 31 | 0.002 to 1.95 (≈ 0.00168 to 1.64 µM) | 0.25 to 62 (≈ 0.21 to 52.2 µM) | CO[C@H]1/C=C/O[C@@]2(C)Oc3c(C)c(O)c4c(c3C2=O)C(=O)C(N2CCOCC2)=C(NC(=O)/C(C)=C\C=C\[C@H](C)[C@H](O)[C@@H](C)[C@@H](O)[C@@H](C)[C@H](OC(=O)NCC(=O)NC2CCN(c3c(F)cc5c(=O)c(C(=O)O)cn(C6CC6)c5c3Cl)C2)[C@@H]1C)C4=O (stereo partly drawn) [Example 63]

Further lines, the molecule ahead of its results:

Row | SMILES | MIC [1] [µg/mL] | MIC [2] [µg/mL] | MIC [3] [µg/mL]
10 | COc1c(N2CCCC(NC3CCN(C(=O)O[C@H]4[C@H](C)[C@H](O)[C@H](C)[C@@H](O)[C@@H](C)/C=C/C=C(/C)C(=O)NC5=C(N6CCOCC6)C(=O)c6c(c(O)c(C)c7c6C(=O)[C@@](C)(O/C=C/[C@H](OC)[C@H]4C)O7)C5=O)CC3)C2)c(F)cc2c(=O)c(C(=O)O)cn(C3CC3)c12 (stereo partly drawn) [Example 59] | 0.063 to 31 | 0.002 to 1.95 (≈ 0.00163 to 1.59 µM) | 0.25 to 62 (≈ 0.204 to 50.7 µM)
11 | CO[C@H]1/C=C/O[C@@]2(C)Oc3c(C)c(O)c4c(c3/C2=N/O)C(=O)C(N2CCOCC2)=C(NC(=O)/C(C)=C\C=C\[C@H](C)[C@H](O)[C@@H](C)[C@@H](O)[C@@H](C)[C@H](OC(=O)NCCN(C)C)[C@@H]1C)C4=O [Example 69] | 0.063 to 31 | 0.002 to 1.95 (≈ 0.0023 to 2.25 µM) | 0.25 to 62 (≈ 0.288 to 71.4 µM)
12 | COc1ccccc1-c1cc(CNC(=O)O[C@H]2[C@H](C)[C@H](O)[C@H](C)[C@@H](O)[C@@H](C)/C=C/C=C(/C)C(=O)NC3=C(N4CCOCC4)C(=O)c4c(c(O)c(C)c5c4C(=O)[C@@](C)(O/C=C/[C@H](OC)[C@H]2C)O5)C3=O)on1 [Example 46, 25-O-Desacetyl-(carbonyl-C-[3-(2-methoxy-phenyl)-isoxazol-5-yl]-methylamino) 3-morpholino rifamycin S] | 0.063 to 31 | 0.002 to 1.95 (≈ 0.00206 to 2.01 µM) | 0.25 to 62 (≈ 0.258 to 64 µM)
13 | COc1ccc(CNC(=O)O[C@H]2[C@H](C)[C@H](O)[C@H](C)[C@@H](O)[C@@H](C)/C=C/C=C(/C)C(=O)NC3=C(N4CCOCC4)C(=O)c4c(c(O)c(C)c5c4C(=O)[C@@](C)(O/C=C/[C@H](OC)[C@H]2C)O5)C3=O)cc1 [Example 26, 25-O-Desacetyl-(carbonyl-4-methoxybenzylamino) 3-morpholino rifamycin S] | 0.063 to 31 | 0.002 to 1.95 (≈ 0.00222 to 2.16 µM) | 0.25 to 62 (≈ 0.277 to 68.7 µM)
14 | CO[C@H]1/C=C/O[C@@]2(C)Oc3c(C)c(O)c4c(c3C2=O)C(=O)C(N2CCOCC2)=C(NC(=O)/C(C)=C\C=C\[C@H](C)[C@H](O)[C@@H](C)[C@@H](O)[C@@H](C)[C@H](OC(=O)NCCN(C)C)[C@@H]1C)C4=O [Example 30, 25-O-Desacetyl-(carbonyl-N,N-dimethylethylenediamine) 3-morpholino rifamycin S] | 0.063 to 31 | 0.002 to 1.95 (≈ 0.00234 to 2.29 µM) | 0.25 to 62 (≈ 0.293 to 72.7 µM)
15 | CO[C@H]1/C=C/O[C@@]2(C)Oc3c(C)c(O)c4c(c3C2=O)C(=O)C(N2CCOCC2)=C(NC(=O)/C(C)=C\C=C\[C@H](C)[C@H](O)[C@@H](C)[C@@H](O)[C@@H](C)[C@H](OC(=O)N2CCC(N3CCN(c5cc6c(cc5F)c(=O)c(C(=O)O)cn6C5CC5)CC3)CC2)[C@@H]1C)C4=O [Example 57] | 0.063 to 31 | 0.002 to 1.95 (≈ 0.0017 to 1.65 µM) | 0.25 to 62 (≈ 0.212 to 52.6 µM)
16 | CO[C@H]1/C=C/O[C@@]2(C)Oc3c(C)c(O)c4c(c3C2=O)C(=O)C(N2CCOCC2)=C(NC(=O)/C(C)=C\C=C\[C@H](C)[C@H](O)[C@@H](C)[C@@H](O)[C@@H](C)[C@H](OC(=O)NCc2cc(-c3ccccn3)no2)[C@@H]1C)C4=O [Example 47, 25-O-Desacetyl-(carbonyl-C-(3-Pyridin-2-yl-isoxazol-5-yl)-methylamino) 3-morpholino rifamycin S] | 0.063 to 31 | 0.002 to 1.95 (≈ 0.00213 to 2.07 µM) | 0.25 to 62 (≈ 0.266 to 66 µM)
17 | CO[C@H]1/C=C/O[C@@]2(C)Oc3c(C)c(O)c4c(c3C2=O)C(=O)C(N2CCOCC2)=C(NC(=O)/C(C)=C\C=C\[C@H](C)[C@H](O)[C@@H](C)[C@@H](O)[C@@H](C)[C@H](OC(=O)NCCc2ccccn2)[C@@H]1C)C4=O [Example 18, 25-O-Desacetyl-(1-carbonyl-(2-pyridin-2-yl-ethylamine)) 3-morpholino rifamycin S] | 0.063 to 31 | 0.002 to 1.95 (≈ 0.00225 to 2.2 µM) | 0.25 to 62 (≈ 0.282 to 69.9 µM)
18 | COc1c(N2CCN(C(=O)CNC(=O)O[C@H]3[C@H](C)[C@H](O)[C@H](C)[C@@H](O)[C@@H](C)/C=C/C=C(/C)C(=O)NC4=C(N5CCOCC5)C(=O)c5c(c(O)c(C)c6c5C(=O)[C@@](C)(O/C=C/[C@H](OC)[C@H]3C)O6)C4=O)CC2)c(F)cc2c(=O)c(C(=O)O)cn(C3CC3)c12 [Example 64] | 0.063 to 31 | 0.002 to 1.95 (≈ 0.00169 to 1.65 µM) | 0.25 to 62 (≈ 0.211 to 52.4 µM)
19 | C=CCNC(=O)O[C@H]1[C@H](C)[C@H](O)[C@H](C)[C@@H](O)[C@@H](C)/C=C/C=C(/C)C(=O)NC2=C(N3CCOCC3)C(=O)c3c(c(O)c(C)c4c3C(=O)[C@@](C)(O/C=C/[C@H](OC)[C@H]1C)O4)C2=O [Example 8, 25-O-Desacetyl-(carbonyl-allylamino) 3-morpholino rifamycin S] | 0.063 to 31 | 0.002 to 1.95 (≈ 0.00243 to 2.37 µM) | 0.25 to 62 (≈ 0.304 to 75.4 µM)
20 | CO[C@H]1/C=C/O[C@@]2(C)Oc3c(C)c(O)c4c(c3C2=O)C(=O)C(N2CCOCC2)=C(NC(=O)/C(C)=C\C=C\[C@H](C)[C@H](O)[C@@H](C)[C@@H](O)[C@@H](C)[C@H](OC(=O)NCC(C)C)[C@@H]1C)C4=O [Example 7, 25-O-Desacetyl-(1-carbonyl-isobutylamino) 3-morpholino rifamycin S] | 0.063 to 31 | 0.002 to 1.95 (≈ 0.00239 to 2.33 µM) | 0.25 to 62 (≈ 0.298 to 74 µM)
